“Also recorded” adds a separate entry of the source.
Tests used:
HASMCs = format: cell-based, human; settings: up to 100 nM (200 nM for A4, A7, A9)
HAECs = format: cell-based, human; settings: up to 50 nM (100 nM for A4, A7, A9)
Description: For cell proliferation assay, HAECs were divided at a concentration of 4000 cells/well in a final volume of 100 μl onto a 96-well plate including a siRNA-transfection reagent mixture. After siRNA-transfected for 24 hours, the cells were serum-starved for 18 hours, and then placed in an EBM-2 basal medium supplemented with VEGF-A165 (25 ng/ml, Cat no. 293-VE, R&D systems) for additional 24 hours. The extent of cell proliferation was measured using a WST-1 cell proliferation assay kit (Roche Diagnostics, USA), and the number of cells was expressed as absorbance at 450 nm, which was averaged from 3 wells after subtracting the turbidity at 600 nm.
The cell migration assay was performed in a 24-well Transwell culture chamber (Costar; 8-μm pore size). The bottom of the filter was coated with gelatin B (1 mg/ml) and air-dried for 1 hour. HAECs (6×10^3) were added to upper chambers including siRNA-transfection complexes. After 24 hours, the siRNA-transfected HAECs were serum-starved overnight. A solution of VEGF-A (25 ng/ml) was prepared in a basal medium including 0.5% bovine serum albumin (BSA), and added to bottom chambers. The upper chamber wells were each filled with a basal medium including 0.5% BSA. The Transwell chamber was incubated for 8 hours under the condition of 37° C./5% carbon dioxide. After the incubation, the non-migrated cells at the top of the filter were removed, and the cells that migrated onto the bottom of filter were fixed and stained with 0.6% hematoxylin and 0.5% eosin. The stained cells were photographed and counted. The number of migrating cells was averaged from 3 wells.

[1] = test system: yeast thioredoxin (Trx) / yeast thioredoxin reductase (TR) system; experiment: Peroxidase activity assay (hydrogen peroxide reduction), Trx/TR system; format: biochemical
Description: The peroxidase activity assay for the epidithiodioxopiperazine derivatives according to the present invention (hereinafter, referred to as ETP compounds) was performed according to known methods [Korean Patent No. 10-0953326]. A standard peroxidase reaction for spectrophotometric assay was carried out using a 200 μl reaction mixture of 1 mM EDTA-containing 50 mM Hepes-NaOH buffer solution (pH 7.0) including 250 μM NADPH, 3 μM yeast thioredoxin (Trx), 1.5 μM yeast thioredoxin reductase (TR), 25 μM ETP compound and […] of hydrogen peroxide. For the comparison with a glutathione (GSH)-dependent peroxidase reaction, GSH (1 mM) and yeast glutathione reductase (GSH reductase; GR) (1 Unit) were added instead of yeast Trx and TR. Each reaction was initiated by adding hydrogen peroxide, and the NADPH oxidation was monitored for 12 minutes at 30° C. according to absorbance decrease at 340 nm using an Agilent UV8453 spectrophotometer (Hewlett Packard, USA). The initial reaction rate was calculated using the linear portion of the curve and expressed as the amount of NADPH oxidized per minute.
The chemical feature of the epidithiodioxopiperazine compound of the present invention or its derivatives is the intramolecular disulfide bridge present in the epidithiodioxopiperazine ring moiety. Cellular peroxidase reduces hydrogen peroxide utilizing the electrons derived from NADPH via two electron-transfer routes, that is, Trx/TR or GSH/GR, therefore, spectrophotometric assay was performed for the hydrogen peroxide-reducing activity in the presence of each system, and the results are shown in FIGS. 1 to 5.

[2] = test system: balloon-injured rat carotid artery; experiment: Balloon-injury model of rat carotid artery; format: in vivo; settings: local administration to the lumen through catheter, 30 minutes; ETP derivatives 200 nM; 10 days recovery
Description: Animal experiments were performed in compliance with the guidelines of Institutional Animal Care and Use Committee (IACUC) of the Ewha Womans University. Balloon injury was created using an infiltrated 2 F Fogarty balloon catheter in the left common carotid artery as follows: after the ten-week-old male Sprague-Dawley rats were anaesthetized by isoflurane gas (N2O:O2/70%:30%) inhalation, the left external carotid artery was exposed, and its branches were electrocoagulated. A catheter was pushed 1 cm in through the transverse arteriotomy of the external carotid artery, and the endothelial denudation was achieved by three passes along the common carotid artery. After the catheter was removed, the punched area was sealed and the clapped common carotid artery was opened for resuming the blood flow. Unless otherwise stated, the rats were recovered in a cage for 10 days, and subjected to histological and immunological analyses.
Rats were anesthetized, and the common carotid artery was excised after transcardiac perfusion-fixation with a heparinized saline solution containing 3.7% formaldehyde. The vessels were paraffin embedded and sectioned using a rotary microtome (Leica RM2255). Two serial tissue sections (4 μm in thickness) were obtained from the middle area of common carotid arteries, and stained with haematoxylin and eosin (HE). The luminal, internal elastic laminal, and external elastic laminal areas were measured using NIH Image v1.62. The intimal and medial areas were determined by subtracting the luminal area from the internal elastic area and subtracting the internal elastic area from the external elastic area. The values from the two serial sections for each rat were averaged for analysis.
For the in vivo injection of siRNA, a siRNA mixture specific to rat PrxII (200 nM) was premixed with a siPORT™ NeoFX™ reagent according to the instructions of the manufacturer (Ambion). Immediately after the balloon injury, the siRNA-injected mixture (200 μL) was injected through a catheter after briefly washed with Opti-MEM. After the incubation for 15 minutes, the blood flow was resumed. A siGLO-Red (Dharmacon), which is fluorescent dye-conjugated control siRNA, was used for optimizing in vivo injection efficiency. Similarly, the ETP compound (200 nM in DMSO) was injected through a catheter and incubated for 30 minutes.
Immunohistochemistry for the overoxidized 2-Cys Prxs was performed on the paraffin sections using an anti-Prx-SO2/3 antibody (1:1000 dilution). Briefly, the sections were de-waxed in xylene and rehydrated in ethanol, and subsequently the antigen retrieval was performed by boiling in a citric buffer solution (pH 6.0). After that, the sections were incubated with a primary antibody for 48 hours at 4° C. After washing three times with a phosphatebuffered saline solution, the sections were incubated with a peroxidase-conjugated secondary antibody and stained with a 3′,3′-diaminobenzidine (DAB) substrate solution. For negative staining, the Prx-502/3 antibody was blocked with the corresponding antigenic peptide (DFTFVC(SO2/3)PTEI). For indirect immunofluorescence staining, the paraffin sections were blocked with 5% normal rabbit serum (Vector Laboratories) in PBST (a PBS solution of 0.3% Triton X-100) for 1 hour at room temperature. The sections were then incubated overnight at 4° C. with the […] against rat smooth muscle α-actin (1:300 dilution) and rat CD31 (PECAM-1, 1:200 dilution). The nuclei were labeled with DAPI. After several PBST washes, the samples were incubated for 2 hours at room temperature with Alexa Fluor 568-conjugated donkey anti-mouse and Alexa Fluor 488-conjugated donkey anti-rabbit IgG antibodies. The fluorescence images were recorded on three random fields per tissue section at a screen magnification of 100× using a LSM 510 Meta confocal microscope equipped with argon and helium-neon lasers.
The paraffin sections were incubated for 10 minutes in PBS containing 0.1% Triton X-100. […]

Structure (SMILES)	proliferation and chemotactic transmigration of HASMCs in response to PDGF, enhanced by PrxII knockdown (HASMCs)	VEGF-induced proliferation and chemotactic transmigration of HAECs, impaired by PrxII knockdown (HAECs)	hydrogen peroxide-reducing (peroxidase) activity in the presence of a Trx/TR system, in words [1]	intimal hyperplasia (ratio of intima versus media, HE staining) [2]	initial reaction rate for hydrogen peroxide reduction compared to the corresponding oxidized type [1]
O=C1C2SSC(C(=O)N2C(c2ccccc2)c2ccccc2)N1C(c1ccccc1)c1ccccc1 [Compound A7, 5,7-dibenzhydryl-2,3-dithia-5,7-diazabicyclo[2.2.2]octane-6,8-dione]	insignificant activities; also recorded: low activities	insignificant activities; also recorded: low activities	–	–	–
O=C1NC2SSC1NC2=O [Compound A1, 2,3-dithia-5,7-diazabicyclo[2.2.2]octane-6,8-dione]	excellent activities	excellent activities	–	–	–
C=CCN1C(=O)C2SSC1C(=O)N2CC=C [Compound A5, 5,7-diallyl-2,3-dithia-5,7-diazabicyclo[2.2.2]octane-6,8-dione]	excellent activities	excellent activities	–	–	–
COc1ccc(CN2C(=O)C3NC(=O)C2SS3)cc1 (centres unmarked) [Compound A6, 5-(4-methoxybenzyl)-2,3-dithia-5,7-diazabicyclo[2.2.2]octane-6,8-dione]	moderate activities	moderate activities	–	–	–
CS[C@]1(CO)C(=O)N2[C@H]3C(=CC=C[C@@H]3O)C[C@@]2(SC)C(=O)N1C [bis(methylthio)gliotoxin, Bis(methylthio)gliotoxin]	–	–	not observed	did not suppress	–
CCCCN1C(=O)C2SSC1C(=O)N2CCCC [Compound A8, 5,7-dibutyl-2,3-dithia-5,7-diazabicyclo[2.2.2]octane-6,8-dione]	excellent activities	excellent activities	–	–	–
CN1C(=O)C(S)N(C)C(=O)C1S (centres unmarked) [Compound A2R, 3,6-dimercapto-1,4-dimethylpiperazine-2,5-dione]	no significant changes	no significant changes	–	–	higher intial reaction rates
CN1C(=O)C2(C)SSC1C(=O)N2C (centres unmarked) [Compound A3, 1,5,7-trimethyl-2,3-dithia-5,7-diazabicyclo[2.2.2]octane-6,8-dione]	excellent activities	excellent activities	–	–	–
C=CCN1C(=O)C(S)N(CC=C)C(=O)C1S (centres unmarked) [Compound A5R, 3,6-dimercapto-1,4-diallylpiperazine-2,5-dione]	no significant changes	no significant changes	–	–	higher intial reaction rates
COCCCN1C(=O)C2SSC1C(=O)N2CCCOC [Compound A9, 5,7-bis(3-methoxypropyl)-2,3-dithia-5,7-diazabicyclo[2.2.2]octane-6,8-dione]	insignificant activities; also recorded: moderate activities	insignificant activities; also recorded: moderate activities	–	–	–
CN1C(=O)C2SSC1C(=O)N2C [Compound A2, 5,7-dimethyl-2,3-dithia-5,7-diazabicyclo[2.2.2]-octane-6,8-dione]	excellent activities	excellent activities	–	–	–
COc1ccc(CN2C(=O)C3SSC2C(=O)N3Cc2ccc(OC)cc2)cc1 [Compound A4, 5,7-bis(4-methoxybenzyl)-2,3-dithia-5,7-diazabicyclo[2.2.2]octane-6,8-dione]	insignificant activities; also recorded: low activities	insignificant activities; also recorded: low activities	–	–	–

From patent US10450327B2, “Epidithiodioxopiperazine compound or its derivatives, and the use thereof” (priority 2011, dated 2019)
